Where two headings read alike, the source gives them in different places.
Target: T1, 5HT6 human recombinant receptor (Homo sapiens, UniProt P50406)
T1 construct: purchased Receptor Biology; host or cells: HEK-293 cell membranes
Assay: Binding test to 5-HT6 receptors ([3H]-LSD displacement, HEK-293 cell membranes)
Details: for inhibition at 1 µM: compound concentration 10^−6 M; for Ki: inhibition constant by non-linear regression (EBDA/LIGAND), [3H]-LSD 2.7 nM; for inhibition at 0.1 µM: read-out: % Inhibition 10^−7 M; for inhibition at 0.01 µM: read-out: % Inhibition 10^−8 M
Protocol: Binding Test to 5-HT6 Receptors
Membranes of HEK-293 cells expressing the 5HT6 human recombinant receptor were supplied by Receptor Biology. In these membranes the receptor concentration is 2.18 pmol/mg protein and the protein concentration is 9.17 mg/ml. The experimental protocol follows the method of B. L. Roth et al. [B. L. Roth, S. C. Craigo, M. S. Choudhary, A. Uluer, F. J. Monsma, Y. Shen, H. Y. Meltzer, D. R. Sibley: Binding of Typical and Atypical Antipsychotic Agents to 5-Hydroxytryptamine-6 and Hydroxytriptamine-7 Receptors. The Journal of Pharmacology and Experimental Therapeutics, 1994, 268, 1403] with slight modifications. The commercial membrane is diluted (dilution 1:40) with the binding buffer: 50 mM Tris-HCl, 10 mM MgCl2, 0.5 mM EDTA (pH 7.4). The radioligand used is [^3H]-LSD at a concentration of 2.7 nM with a final volume of 200 μl. Incubation is initiated by adding 100 μl of the membrane suspension (≈22.9 μg membrane protein), and continues for 60 minutes at a temperature of 37° C. Incubation ends by fast filtration in a Harvester Brandel Cell through glass fibre filters manufactured by Schleicher & Schuell GF 3362 pre-treated with a 0.5% polyethylenimine solution. The filters are washed three times with three milliliters of Tris-HCl 50 mM pH 7.4 buffer. The filters are transferred to vials and to each vial 5 ml of liquid scintillation cocktail Ecoscint H is added. The vials are allowed to reach equilibrium for several hours before being counted in a Wallac Winspectral 1414 scintillation counter. Non-specific binding is determined in the presence of 100 μM serotonin. The tests are performed in triplicate. The inhibition constants (Ki, nM) are calculated by non-linear regression analysis using the program EBDA/LIGAND [Munson and Rodbard, Analytical Biochemistry, 1980, 107, 220].

[1] = radioligand [3H]-LSD 2.7 nM, 60 min, 37° C.
[2] = compound concentration 10^−7 M, radioligand [3H]-LSD 2.7 nM, 60 min, 37° C.
[3] = compound concentration 10^−8 M, radioligand [3H]-LSD 2.7 nM, 60 min, 37° C.

T1 sequence (P50406 whole entry): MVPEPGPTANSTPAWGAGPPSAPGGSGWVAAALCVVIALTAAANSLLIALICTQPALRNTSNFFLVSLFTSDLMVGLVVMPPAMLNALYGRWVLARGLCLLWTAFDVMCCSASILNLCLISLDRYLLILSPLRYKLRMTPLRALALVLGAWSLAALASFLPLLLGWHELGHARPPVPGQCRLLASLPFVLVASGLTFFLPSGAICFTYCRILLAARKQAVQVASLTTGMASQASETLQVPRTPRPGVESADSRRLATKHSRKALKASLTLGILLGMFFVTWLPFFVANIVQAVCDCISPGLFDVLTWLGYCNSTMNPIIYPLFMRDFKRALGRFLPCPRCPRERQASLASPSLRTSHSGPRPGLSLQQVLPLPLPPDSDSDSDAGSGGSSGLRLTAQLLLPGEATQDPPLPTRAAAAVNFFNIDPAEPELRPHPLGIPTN

inhibition at 1 µM [1] [%]	Ki [nM]	inhibition at 0.1 µM [2] [%]	inhibition at 0.01 µM [3] [%]	Compound	inhibition at 0.1 µM [%]	inhibition at 0.01 µM [%]
97	4.8	–	–	CC1=C(CCN(C)C)c2cc(NS(=O)(=O)c3c(Cl)nc4sccn34)ccc2C1 [Example 19, N-[3-(2-Dimethylaminoethyl)-2-methyl-1H-inden-5-yl]-6-chloroimidazo[2,1-b]thiazole-5-sulfonamide]	–	–
–	–	42	13	CC1=C(CCN(C)C)c2cc(NS(=O)(=O)c3sc4ccc(Cl)cc4c3C)ccc2C1 [Example 20, N-[3-(2-Dimethylaminoethyl)-2-methyl-1H-inden-5-yl]-5-chloro-3-methylbenzo[b]thiophene-2-sulfonamide]	–	–
–	–	82	53	CC1=C(CCN2CCCC2)c2cc(NS(=O)(=O)c3c(Cl)nc4sccn34)ccc2C1 [Example 29, N-[3-(2-Pyrrolidin-1-ylethyl)-2-methyl-1H-inden-5-yl]-6-chloroimidazo[2,1-b]thiazole-5-sulfonamide]	–	–
–	–	63	26	CC1=C(CCN2CCCC2)c2cc(NS(=O)(=O)c3ccc(N)cc3)ccc2C1 [Example 32, 4-Amino-N-[3-(2-pyrrolidin-1-ylethyl)-2-methyl-1H-inden-5-yl]benzene sulfonamide]	–	–
–	216	–	–	CC1=C(CCN(C)C)c2cc(NS(=O)(=O)c3ccc4ccccc4c3)ccc2/C1=C\c1ccccc1 [Example 33, N-[1(Z)-Benzylidene-3-(2-dimethylaminoethyl)-2-methyl-1H-inden-5-yl]naphthalene-2-sulfonamide]	–	–
100	50.6	71	18	CC1=C(CCN(C)C)c2cc(NS(=O)(=O)c3ccc4ccccc4c3)ccc2C1 [Example 34, N-[3-(2-Dimethylaminoethyl)-2-methyl-1H-inden-5-yl]naphthalene-2-sulfonamide]	–	–
92	62.9	–	–	CC1=C(CCN2CCCC2)c2cc(NS(=O)(=O)c3ccc4ccccc4c3)ccc2C1 [Example 35, N-[2-Methyl-3-(2-pyrrolidin-1-ylethyl)-1H-inden-5-yl]naphthalene-2-sulfonamide]	–	–
72	157	–	–	CC1=C(CCN2CCCC2)c2cccc(NS(=O)(=O)c3ccc4ccccc4c3)c2C1 [Example 36, N-[2-Methyl-1-(2-pyrrolidin-1-ylethyl)-3H-inden-4-yl]naphthalene-2-sulfonamide]	–	–
92	46.3	–	–	O=S(=O)(Nc1ccc2c(c1)C(CCN1CCCC1)=CC2)c1ccc2ccccc2c1 [Example 37, N-[3-(2-Pyrrolidin-1-ylethyl)-1H-inden-5-yl]naphthalene-2-sulfonamide]	–	–
100	20.2	–	–	CC1=C(CCN2CCCC2)c2cc(NS(=O)(=O)c3sc4ccc(Cl)cc4c3C)ccc2C1 [Example 38, N-[2-Methyl-3-(2-pyrrolidin-1-ylethyl)-1H-inden-5-yl]-5-chloro-3-methylbenzo[b]thiophene-2-sulfonamide]	–	–
–	–	51	25	CC1=C(CCN(C)C)c2cc(S(=O)(=O)Nc3cccc4ccccc34)ccc2C1 [Example 39, N-(Naphthalene-1-yl)-3-(2-dimethylaminoethyl)-2-methyl-1H-indene-5-sulfonamide]	–	–
45	–	16	8	CC1=C(CCO)c2cc(NS(=O)(=O)c3ccc4ccccc4c3)ccc2C1 [Example 40, N-[3-(2-Hydroxyethyl)-2-methyl-1H-inden-5-yl]naphthalene-2-sulfonamide]	–	–
–	–	24.5	9.4	CN(C)CCC1=CC(C)(C)c2ccc(NS(=O)(=O)c3c(Cl)nc4sccn34)cc21 [Example 41, 6-Chloro-N-{3-[2-(dimethylamino)ethyl]-1,1-dimethyl-1H-inden-5-yl}imidazo[2,1-b] [1,3]thiazole-5-sulfonamide]	–	–
–	–	2.3	-7.5	Cc1c(S(=O)(=O)Nc2ccc3c(c2)C(CCN(C)C)=CC3(C)C)sc2ccc(Cl)cc12 [Example 42, 5-Chloro-N-{3-[2-(dimethylamino)ethyl]-1,1-dimethyl-1H-inden-5-yl}-3-methylbenzo[b]thiophene-2-sulfonamide]	–	–
–	–	78.4	32	CC1=C(CCN(C)C)c2cc(NS(=O)(=O)c3cccc4ccccc34)ccc2C1 [Example 43, N-{3-[2-(Dimethylamino)ethyl]-2-methyl-1H-inden-5-yl}naphthalene-1-sulfonamide]	–	–
–	–	88.3	53	CC1=C(CCN(C)C)c2cc(NS(=O)(=O)c3csc4ccccc34)ccc2C1 [Example 44, N-{3-[2-(Dimethylamino)ethyl]-2-methyl-1H-inden-5-yl}-1-benzothiophene-3-sulfonamide]	–	–
–	–	5.4	7.4	CC1=C(C2CCN(C)C2)c2cc(NS(=O)(=O)c3c(Cl)nc4sccn34)ccc2C1 (stereo not shown) [Example 45, 6-Chloro-N-[2-methyl-3-(1-methylpyrrolidin-3-yl)-1H-inden-5-yl]imidazo[2,1-b] [1,3]thiazole-5-sulfonamide]	–	–
–	–	85.8	77.6	CC1=C(C2CCCN(C)C2)c2cc(NS(=O)(=O)c3c(Cl)nc4sccn34)ccc2C1 (stereo not shown) [Example 46, 6-Chloro-N-[2-methyl-3-(1-methylpiperidin-3-yl)-1H-inden-5-yl]imidazo[2,1-b] [1,3]thiazole-5-sulfonamide]	–	–
–	–	–	–	CC1=C(CCN(C)C)c2cc(Cl)ccc2C1 [Example 47, 2-(5-Chloro-2-methyl-1H-inden-3-yl)-N,N-dimethylethanamine]	8.9	16.2
